Holding throughout (type): functional, organism-based
Assay [1] deals with Toxoplasma gondii. Nature of the assay: Antimicrobial activity against Toxoplasma gondii RH infected in HFF cells by plaque assay.
Assay [2] relates to Toxoplasma gondii. The assay can be described thus: Antimicrobial activity against Toxoplasma gondii RH containing alpha1-tubulin V4L mutation infected in HFF cells by plaque assay.
The test system of assay [3] is Toxoplasma gondii. Nature of the assay: Antimicrobial activity against Toxoplasma gondii RH containing alpha1-tubulin S6I mutation infected in HFF cells by plaque assay.
For assay [4], the system named is Toxoplasma gondii. Nature of the assay: Antimicrobial activity against Toxoplasma gondii RH containing alpha1-tubulin F24H mutation infected in HFF cells by plaque assay.
In assay [5] the test system is Toxoplasma gondii. The assay can be described thus: Antimicrobial activity against Toxoplasma gondii RH containing alpha1-tubulin H28Q mutation infected in HFF cells by plaque assay.
The subject of assay [6] is Toxoplasma gondii. The assay can be described thus: Antimicrobial activity against Toxoplasma gondii RH containing alpha1-tubulin L136F mutation infected in HFF cells by plaque assay.
Assay [7] concerns Toxoplasma gondii. Nature of the assay: Antimicrobial activity against Toxoplasma gondii RH containing alpha1-tubulin I235L mutation infected in HFF cells by plaque assay.
For assay [8], the system named is Toxoplasma gondii. The assay can be described thus: Antimicrobial activity against Toxoplasma gondii RH containing alpha1-tubulin I235T mutation infected in HFF cells by plaque assay.
For assay [9], the system named is Toxoplasma gondii. The assay can be described thus: Antimicrobial activity against Toxoplasma gondii RH containing alpha1-tubulin I235V mutation infected in HFF cells by plaque assay.
Assay [10] relates to Toxoplasma gondii. Nature of the assay: Antimicrobial activity against Toxoplasma gondii RH containing alpha1-tubulin T239I mutation infected in HFF cells by plaque assay.
Assay [11] concerns Toxoplasma gondii. The assay can be described thus: Antimicrobial activity against Toxoplasma gondii RH containing alpha1-tubulin R243C mutation infected in HFF cells by plaque assay.
In assay [12] the test system is Toxoplasma gondii. The assay can be described thus: Antimicrobial activity against Toxoplasma gondii RH containing alpha1-tubulin R243S mutation infected in HFF cells by plaque assay.
The test system of the next assay is Cryptosporidium parvum. The assay can be described thus: Antimicrobial activity against Cryptosporidium parvum by short-term in vitro culture assay.
In assay [13] the test system is Toxoplasma gondii. The assay can be described thus: Induction of parasite microtubule disruption Toxoplasma gondii RH infected in HFF cells by antitubulin antibody staining.
In assay [14] the test system is Toxoplasma gondii. The assay can be described thus: Induction of parasite shape change Toxoplasma gondii RH infected in HFF cells at 0.25 uM by phase contrast microscopy.

Calls of active or inactive are those of the source. The calls are words filed in the database; no cut-off is given here.

The text below walks through data of ChEMBL document CHEMBL1255423, “Dinitroaniline activity in Toxoplasma gondii expressing wild-type or mutant alpha-tubulin” (Antimicrob Agents Chemother, 2010).

A word on the IC50: it is the concentration needed to halve the response being measured. A high value points to weaker potency. Turning to `CCCN(CCC)c1c([N+](=O)[O-])cc(C(C)C)cc1[N+](=O)[O-]` [ISOPROPALIN], the IC50 in the assay on Toxoplasma gondii [1] worked out at 0.88 µM; in the assay on Toxoplasma gondii [2], 7 µM; in the assay on Toxoplasma gondii [3] it was 2.2 µM; in the assay with Toxoplasma gondii [4] it was 3.5 µM; with Toxoplasma gondii [5], 3.4 µM; in the assay on Toxoplasma gondii [6] it was 15 µM. For the same compound, the IC50 was determined as 2.2 µM with Toxoplasma gondii [7]; 4.3 µM in the assay on Toxoplasma gondii [8]; 2.2 µM with Toxoplasma gondii [9]; 15 µM in the assay with Toxoplasma gondii [10]; 4 µM in the assay on Toxoplasma gondii [11]; 13.5 µM with Toxoplasma gondii [12].
For `CCCN(CCC)c1c([N+](=O)[O-])cc(S(C)(=O)=O)cc1[N+](=O)[O-]` [NITRALIN], the IC50 with Toxoplasma gondii [1] is 0.5 µM; in the assay on Toxoplasma gondii [2] it was 19.2 µM; in the assay on Toxoplasma gondii [3], 2.1 µM; in the assay with Toxoplasma gondii [4], 3.7 µM; in the assay on Toxoplasma gondii [5] it was 1.8 µM; with Toxoplasma gondii [6], 31.3 µM. In addition, the IC50 in the assay on Toxoplasma gondii [7] came out at 2.1 µM; in the assay with Toxoplasma gondii [8], 4.9 µM; in the assay with Toxoplasma gondii [9], 1.6 µM; in the assay with Toxoplasma gondii [10], 30.3 µM; in the assay with Toxoplasma gondii [11], 4.3 µM; in the assay with Toxoplasma gondii [12], 23.9 µM. The IC50 in the assay on Cryptosporidium parvum came to 4.5 µM.
For `CCCN(CCCl)c1c([N+](=O)[O-])cc(C(F)(F)F)cc1[N+](=O)[O-]` [FLUCHLORALIN], the IC50 in the assay with Toxoplasma gondii [1] came out at 0.33 µM; in the assay on Toxoplasma gondii [2], 8 µM; in the assay on Toxoplasma gondii [3] it was 1.9 µM; in the assay with Toxoplasma gondii [4] it was 3.2 µM; in the assay with Toxoplasma gondii [5], 1.6 µM; with Toxoplasma gondii [6], 22.2 µM. Also, the IC50 in the assay on Toxoplasma gondii [7] amounted to 1 µM; in the assay with Toxoplasma gondii [8], 2.1 µM; with Toxoplasma gondii [9] it was 0.77 µM; in the assay on Toxoplasma gondii [10], 20.5 µM; with Toxoplasma gondii [11], 2.2 µM; in the assay on Toxoplasma gondii [12], 17.7 µM. The same compound returned an IC50 in the assay on Cryptosporidium parvum of 1.81 µM.
Turning to `CCC(CC)Nc1c([N+](=O)[O-])cc(C)c(C)c1[N+](=O)[O-]` [PENDIMETHALIN], the IC50 was found to be 0.26 µM in the assay on Toxoplasma gondii [1]; 3.2 µM in the assay on Toxoplasma gondii [2]; 0.75 µM in the assay with Toxoplasma gondii [3]; 3.2 µM in the assay with Toxoplasma gondii [4]; 2.5 µM with Toxoplasma gondii [5]; 13.2 µM in the assay on Toxoplasma gondii [6]. Moreover, the IC50 amounted to 1 µM in the assay with Toxoplasma gondii [7]; 0.71 µM in the assay on Toxoplasma gondii [8]; 0.34 µM in the assay with Toxoplasma gondii [9]; 12.2 µM with Toxoplasma gondii [10]; 1.1 µM in the assay with Toxoplasma gondii [11]; 9.7 µM in the assay on Toxoplasma gondii [12]. Besides, the IC50 with Cryptosporidium parvum was 0.19 µM.
As for `CCC(C)Nc1c([N+](=O)[O-])cc(C(C)(C)C)cc1[N+](=O)[O-]` (centres undefined) [BUTRALIN], the IC50 in the assay with Toxoplasma gondii [1] came to 1.8 µM; in the assay on Toxoplasma gondii [2] it was 32.1 µM; with Toxoplasma gondii [3], 4.5 µM; in the assay with Toxoplasma gondii [4] it was 24.2 µM; in the assay with Toxoplasma gondii [5] it was 10.2 µM; with Toxoplasma gondii [6], 32 µM. The IC50 with Toxoplasma gondii [7] is 9.1 µM; in the assay with Toxoplasma gondii [8], 7.4 µM; with Toxoplasma gondii [9], 3.8 µM; in the assay with Toxoplasma gondii [10], 28.7 µM; in the assay with Toxoplasma gondii [11], 12.8 µM; with Toxoplasma gondii [12], 25.1 µM.
Turning to `COP(=S)(NC(C)C)Oc1ccc(C)cc1[N+](=O)[O-]` (centres undefined) [AMIPROPHOS METHYL], the IC50 turned out to be 1 µM in the assay on Toxoplasma gondii [1]; 2.1 µM in the assay on Toxoplasma gondii [2]; 3.3 µM with Toxoplasma gondii [3]; 10 µM in the assay with Toxoplasma gondii [4]; 5.1 µM in the assay with Toxoplasma gondii [5]; 28.5 µM in the assay on Toxoplasma gondii [6]. Further, the IC50 in the assay on Toxoplasma gondii [7] is 3.9 µM; in the assay with Toxoplasma gondii [8] it was 7.1 µM; in the assay with Toxoplasma gondii [9], 1.5 µM; with Toxoplasma gondii [10], 28.5 µM; with Toxoplasma gondii [11], 5.9 µM; with Toxoplasma gondii [12], 19.1 µM.
With `CCN(CC)c1c([N+](=O)[O-])cc(C(F)(F)F)c(N)c1[N+](=O)[O-]` [DINITRAMINE], the IC50 with Toxoplasma gondii [1] worked out at 0.045 µM; with Toxoplasma gondii [2] it was 3.4 µM; in the assay with Toxoplasma gondii [3], 0.42 µM; in the assay on Toxoplasma gondii [4], 0.37 µM; in the assay with Toxoplasma gondii [5], 0.51 µM; in the assay with Toxoplasma gondii [6], 12.5 µM. Further, the half-inhibitory concentration (IC50) in the assay with Toxoplasma gondii [7] was found to be 0.32 µM; with Toxoplasma gondii [8] it was 0.32 µM; in the assay on Toxoplasma gondii [9] it was 0.089 µM; in the assay on Toxoplasma gondii [10], 26.6 µM; with Toxoplasma gondii [11], 0.33 µM; with Toxoplasma gondii [12], 18.4 µM. Further, the outcome in the assay on Toxoplasma gondii [13] and with Toxoplasma gondii [14] was Active.
On to `CCCN(CCC)c1c([N+](=O)[O-])cc(S(N)(=O)=O)cc1[N+](=O)[O-]` [ORYZALIN], for which the IC50 was determined as 0.25 µM in the assay on Toxoplasma gondii [1]; 14.7 µM in the assay with Toxoplasma gondii [2]; 1.5 µM in the assay with Toxoplasma gondii [3]; 1.26 µM in the assay on Toxoplasma gondii [4]; 1.4 µM in the assay with Toxoplasma gondii [5]; 27.7 µM in the assay with Toxoplasma gondii [6]. Moreover, the IC50 in the assay with Toxoplasma gondii [7] amounted to 1.6 µM; in the assay with Toxoplasma gondii [8] it was 5.5 µM; with Toxoplasma gondii [9], 2.3 µM; with Toxoplasma gondii [10], 25.3 µM; with Toxoplasma gondii [11] it was 2.2 µM; in the assay with Toxoplasma gondii [12] it was 16 µM. In addition, in the assay with Cryptosporidium parvum, the IC50 is 0.7 µM.
`CCCCN(CC)c1c([N+](=O)[O-])cc(C(F)(F)F)cc1[N+](=O)[O-]` [BENFLURALIN]: the IC50 in the assay on Toxoplasma gondii [1] was 1.5 µM; in the assay on Toxoplasma gondii [2], 18.8 µM; with Toxoplasma gondii [3], 7.4 µM; in the assay on Toxoplasma gondii [4], 15.7 µM; with Toxoplasma gondii [5], 15.2 µM; in the assay on Toxoplasma gondii [6], 27.7 µM. The IC50 with Toxoplasma gondii [7] is 4.6 µM; in the assay on Toxoplasma gondii [8], 9.3 µM; in the assay with Toxoplasma gondii [9], 3.7 µM; with Toxoplasma gondii [10], 22.9 µM; with Toxoplasma gondii [11] it was 12 µM; in the assay with Toxoplasma gondii [12], 21.7 µM.
Consider `CCCN(CCC)c1c([N+](=O)[O-])cc(S(=O)(=O)Nc2ccccc2)cc1[N+](=O)[O-]`, for which the IC50 in the assay with Toxoplasma gondii [1] was 6.7 µM; with Toxoplasma gondii [2], 26.2 µM; in the assay with Toxoplasma gondii [3], 12.4 µM; in the assay on Toxoplasma gondii [4] it was 17.2 µM; with Toxoplasma gondii [5], 12.4 µM; in the assay with Toxoplasma gondii [6], 9.7 µM. In addition, the IC50 amounted to 7.7 µM with Toxoplasma gondii [7]; 16.9 µM in the assay with Toxoplasma gondii [8]; 4.7 µM with Toxoplasma gondii [9]; 17.1 µM in the assay with Toxoplasma gondii [10]; 17 µM in the assay with Toxoplasma gondii [11]; 13.3 µM in the assay with Toxoplasma gondii [12].
Consider `C=C(C)CN(CC)c1c([N+](=O)[O-])cc(C(F)(F)F)cc1[N+](=O)[O-]` [ETHALFLURALIN], for which the IC50 in the assay with Toxoplasma gondii [1] amounted to 0.26 µM; in the assay on Toxoplasma gondii [2], 13.5 µM; with Toxoplasma gondii [3], 2.5 µM; with Toxoplasma gondii [4], 2.1 µM; in the assay on Toxoplasma gondii [5], 4.2 µM; in the assay on Toxoplasma gondii [6] it was 24 µM. Further, the IC50 in the assay with Toxoplasma gondii [7] was 1.4 µM; in the assay with Toxoplasma gondii [8], 1.7 µM; in the assay with Toxoplasma gondii [9] it was 0.65 µM; with Toxoplasma gondii [10] it was 28.7 µM; in the assay on Toxoplasma gondii [11], 1.6 µM; in the assay with Toxoplasma gondii [12], 19.5 µM.
As for `CCCN(CCC)c1c([N+](=O)[O-])cc(C(F)(F)F)cc1[N+](=O)[O-]` [TRIFLURALIN], the IC50 is 0.52 µM with Toxoplasma gondii [1]; 13.8 µM with Toxoplasma gondii [2]; 2.8 µM in the assay with Toxoplasma gondii [3]; 4.2 µM with Toxoplasma gondii [4]; 5.3 µM with Toxoplasma gondii [5]; 27 µM in the assay on Toxoplasma gondii [6]. The IC50 in the assay with Toxoplasma gondii [7] is 1.9 µM; with Toxoplasma gondii [8], 5.1 µM; in the assay with Toxoplasma gondii [9] it was 1.8 µM; with Toxoplasma gondii [10], 23.4 µM; in the assay with Toxoplasma gondii [11] it was 4.1 µM; with Toxoplasma gondii [12] it was 23.3 µM. Moreover, in the assay with Cryptosporidium parvum, the IC50 is 1.94 µM.
For the compound `CCCN(CC1CC1)c1c([N+](=O)[O-])cc(C(F)(F)F)cc1[N+](=O)[O-]` [PROFLURALIN], the IC50 amounted to 0.61 µM with Toxoplasma gondii [1]; 8.2 µM in the assay with Toxoplasma gondii [2]; 2.6 µM in the assay with Toxoplasma gondii [3]; 4.3 µM in the assay with Toxoplasma gondii [4]; 2.8 µM with Toxoplasma gondii [5]; 21.2 µM in the assay on Toxoplasma gondii [6]. Also, the IC50 in the assay with Toxoplasma gondii [7] amounted to 1.5 µM; in the assay with Toxoplasma gondii [8], 3.9 µM; with Toxoplasma gondii [9] it was 1.5 µM; in the assay on Toxoplasma gondii [10], 22.1 µM; with Toxoplasma gondii [11], 3.2 µM; with Toxoplasma gondii [12], 20.4 µM. This compound also gave an IC50 with Cryptosporidium parvum of 1.9 µM.
